Data: patent US12702657B2, “Treatment and prevention of dengue disease” (Janssen Pharmaceuticals, Inc., priority 2019, dated 2026)

Assays:
[1] = test system: DENV-2/Rega lab strain; assay: AG129 mouse viremia model, high viral input (10^6 PFU), pre-exposure prophylaxis; assay type: in vivo, AG129 mice; conditions: day 3 p.i.; for viral load reduction in serum / median viral load reduction in serum: 10^6 PFU, vs vehicle
Source text: The AG129 mouse model is a well-established model to study the antiviral effect of compounds against DENV in vivo (Zompi and Harris, 2012). These 129/Sv mice are deficient for both IFN-α/β and IFN-γ receptors, enabling peripheral viral replication upon intravenous (i.v.) or subcutaneous (s.c.) infection with DENV (Johnson and Roehrig, 1999). […]
Total RNA from serum was extracted using the NucleoSpin RNA virus kit according to the manufacturer's protocol (Macherey-Nagel, Düren, Germany). The viral RNA load was determined by one-step TaqMan RT-qPCR (master mix from Eurogentec, Seraing, Belgium). […]
In a similar setup as for the b.i.d. dosing studies, the in vivo efficacy was studied in the AG129 standard viremia model against DENV-2 with high viral inoculum and with compound (a) q.d. administration. Animals were i.p. infected with 10^6 PFU DENV-2/Rega lab strain in a volume of 200 μL. Animals were treated by administering compound (a) by oral gavage with a first administration at one hour prior to infection. The treatment continued for three consecutive days with one administration of compound (a) every 24 hours (once a day or q.d.). At day 3 post infection (p.i.), the mice were euthanized, and blood was collected (FIG. 3). The viral RNA load was determined as outlined in example 1.
The mice were divided in 5 groups (n=8/group) representing the following treatment regimens: • (i) Vehicle 80%/20% PEG400/H2O, • (ii) reference compound (2′CMC, 50 mg/kg per dose, b.i.d., s.c.), • (iii) compound (a): 0.3 mg/kg/dose q.d. • (iv) compound (a): 3 mg/kg/dose q.d. • (v) compound (a): 30 mg/kg/dose q.d. […]
The mice were divided in several groups (n=8/group for the viremia study and n=10/group for the survival study) representing the following treatment regimens: • (i) vehicle, 80%/20% PEG400/H2O • (ii) compound (b): 30 mg/kg/dose b.i.d. • (iii) compound (b): 10 mg/kg/dose b.i.d. • (iv) compound (b): 3 mg/kg/dose b.i.d. • (v) compound (b): 1 mg/kg/dose b.i.d.

[2] = test system: DENV-2/Rega lab strain; assay: AG129 mouse viremia model, low viral input (10^2 PFU), viral load kinetics, pre-exposure prophylaxis; assay type: in vivo, AG129 mice; conditions: for median serum viral load over all 11 days: LOD=2.59 log10 copies/mL
Procedure: In this experiment, lower viral inputs were used (10^2 PFU), compared with the standard viremia experiments with a high viral input (10^6 PFU). 10^2 PFU was selected as it was the lowest viral load leading to a Dengue infection in the mouse model. Using a lower viral input still results in 100% infection of the mice, but the peak viral load is postponed with 1 to 2 days, which more closely mimics a natural human infection (Clapham et al., 2014 and Sim et al., 2015). The mice were treated during 6 consecutive days.
Animals were infected i.p. with 10^2 PFU DENV-2/Rega lab strain and treated for six consecutive days twice daily with compound (a) by oral gavage (FIG. 5).
The mice were divided in four treatment groups (n=16/group) representing the following treatment regimens: • (i) Vehicle 80%/20% PEG400/H2O, • (ii) compound (a): 10 mg/kg/dose b.i.d. p.o. • (iii) compound (a): 1 mg/kg/dose b.i.d. p.o. • (iv) compound (a): 0.1 mg/kg/dose b.i.d. p.o.
Daily blood samples were collected to follow the viral load over time. Blood collection, for viral RNA load detection, was performed in two alternating sub-groups of mice. Each sub-group comprised half of the mice (n/2=8) from each of the treatment groups (i) to (iv). Blood was collected from a first sub-group at day 1, 3, 5 and 8 p.i. and from a second sub-group at day 2, 4, 6 and 11 p.i. At day 8 p.i., mice of the first sub-group were sacrificed while those of the second sub-group were sacrificed at day 11 p.i. […]
Alternating sub-groups were used to enable daily blood collections. Blood for viral RNA load detection was collected from mice in two alternating sub-groups. Each sub-group comprised half of the mice (n/2=8) from each of the treatment groups (i-vi). Blood was collected from a first sub-group at days 1, 3, 5 and 8 p.i. and from a second sub-group at days 2, 4, 6 and 11 p.i. Blood collection was always performed just before the next administration of the compound. At day 8 p.i., half of the mice in each treatment group (n=8/group) were sacrificed. The remaining mice in each treatment group (n=8/group) were sacrificed at day 11 p.i (FIG. 16 Y).

Q: COc1cc(NC(C(=O)c2c[nH]c3ccc(OC(F)(F)F)cc23)c2ccc(Cl)cc2OC)cc(S(C)(=O)=O)c1 (stereo not drawn) [compound (a)] was tested. Which “viral load reduction in serum” value ([1]; 0.1 mg/kg/dose b.i.d. p.o.) did it give?
A: The value was 0.47 log10 copies/mL.

Q: And the “median viral load reduction in serum” value ([1]; 0.3 mg/kg/dose q.d. p.o.)?
A: The value was 0.7 log10 copies/mL.

Q: And the “median viral load reduction in serum” value ([1]; 3 mg/kg/dose q.d. p.o.)?
A: Its value is 3.1 log10 copies/mL.

Q: What about the “viral load reduction in serum” value ([1]; 30 mg/kg/dose b.i.d. p.o.) of the same molecule?
A: The value was 4.4 log10 copies/mL.

Q: What about the “median viral load reduction in serum” value ([1]; 30 mg/kg/dose q.d. p.o.) of the same molecule?
A: The value was 4.5 log10 copies/mL.

Q: What about the “viral load reduction in serum compared with the vehicle-treated group, significance” value ([1]; all doses except 0.1 (0.3, 1, 3, 10, 30 mg/kg/dose b.i.d.), p<0.001) of the same molecule?
A: The value was “significant viral load reduction”.

Q: And the “delay of peak viral load versus vehicle” value ([2]; 0.1 mg/kg/dose b.i.d. p.o., 6 days, 10^2 PFU)?
A: The value was ~ 1 day.

Q: And the “viral load reduction compared with vehicle” value ([2]; 0.1 mg/kg/dose b.i.d. p.o., day 5, 10^2 PFU)?
A: The value was 0.50 log10 copies/mL.

Q: And the “viral load over time” value ([2]; 0.1 mg/kg/dose q.d. p.o., 10^2 PFU)?
A: Its value is “comparable to the vehicle-treated viral load curve”.

Q: What about the “viral load reduction compared to vehicle-treated mice” value ([2]; 0.3 mg/kg/dose q.d. p.o., day 5, 10^2 PFU) of the same molecule?
A: Its value is 1.6 log10 copies/mL.

Q: And the “course of viral load after day 5” value ([2]; 0.3 mg/kg/dose q.d. p.o., up to day 11, 10^2 PFU)?
A: Its value is “no further decline in viral load up to day 11”.

Q: And the “median serum viral load over all 11 days” value ([2]; 0.6 mg/kg/dose q.d. p.o., 6 days, 10^2 PFU)?
A: Its value is “undetectable levels”.

Q: What about the “viral load in the mice over all the days” value ([2]; 1 mg/kg/dose b.i.d. p.o., 6 days, 10^2 PFU) of the same molecule?
A: The value was “undetectable levels”.

Q: What about the “median serum viral load over all 11 days” value ([2]; 1 mg/kg/dose q.d. p.o., 6 days, 10^2 PFU, 1 viral rebound at day 8) of the same molecule?
A: Its value is “undetectable levels”.

Q: And the “median viral load at viral rebound” value ([2]; 1 mg/kg/dose q.d. p.o., day 8, 10^2 PFU)?
A: Its value is 3.78 log10 copies/mL.

Q: What about the “median serum viral load over all 11 days” value ([2]; 3 mg/kg/dose q.d. p.o., 6 days, 10^2 PFU) of the same molecule?
A: The value was “undetectable levels”.

Q: What about the “viral load in the mice over all the days” value ([2]; 10 mg/kg/dose b.i.d. p.o., 6 days, 10^2 PFU) of the same molecule?
A: The value was “undetectable levels”.

Q: What about the “median serum viral load over all 11 days” value ([2]; 10 mg/kg/dose q.d. p.o., 6 days, 10^2 PFU) of the same molecule?
A: The value was “undetectable levels”.

Q: What about the “median serum viral load over all 11 days” value ([2]; 30 mg/kg/dose q.d. p.o., 6 days, 10^2 PFU) of the same molecule?
A: Its value is “undetectable levels”.

Q: Which “viral load reduction in serum” value ([1]; compound (b) 1 mg/kg per dose b.i.d. p.o.) does the source give for COc1cc(NC(C(=O)N2CCc3ccc(OC(F)(F)F)cc32)c2ccc(Cl)cc2)cc(OCCCC(=O)O)c1 (stereo not drawn) [compound (b)] here?
A: Its value is 0.70 log10 copies/mL.

Q: And the “viral load reduction in serum” value ([1]; compound (b) 30 mg/kg per dose b.i.d. p.o.)?
A: Its value is 3.8 log10 copies/mL.

Q: And the “viral load reduction compared with the vehicle-treated group, significance” value ([1]; compound (b), all four doses (1, 3, 10, 30 mg/kg per dose b.i.d.), p<0.05)?
A: Its value is “significant viral load reduction”.

Q: What about the “reduction of viral RNA levels at peak viremia” value ([2]; compound (b) 0.3 mg/kg b.i.d. p.o., 10^2 PFU) of the same molecule?
A: Its value is 0.8 log10.

Q: And the “reduction of viral RNA levels at peak viremia” value ([2]; compound (b) 1 mg/kg b.i.d. p.o., 10^2 PFU)?
A: The value was 1.8 log10.

Q: What about the “viral RNA levels in serum” value ([2]; compound (b) 3 mg/kg/dose b.i.d. p.o., 6 days, 10^2 PFU) of the same molecule?
A: The value was “undetectable levels”.

Q: What about the “viral RNA levels in serum” value ([2]; compound (b) 10 mg/kg/dose b.i.d. p.o., 6 days, 10^2 PFU) of the same molecule?
A: Its value is “undetectable levels”.

Q: What about the “viral RNA levels in serum” value ([2]; compound (b) 30 mg/kg/dose b.i.d. p.o., 6 days, 10^2 PFU) of the same molecule?
A: The value was “undetectable levels”.
